Results on nine molecules are retold here after ChEMBL document CHEMBL1135276, “Novel estimation of lipophilic behaviour of polychlorinated biphenyls” (Bioorg Med Chem Lett, 2002).

The structures appear in SMILES notation.

The nature of this data set: Partition coefficient (logP). To be noted: octanol/water.
One may read the logP as the decadic logarithm of the partition coefficient of the neutral form, usually between octanol and water. A lower logP goes with a more hydrophilic compound. In turn, `Clc1ccc(Cl)c(-c2ccccc2Cl)c1` had a logP of 5.6.
In the case of `Clc1ccc(Cl)c(-c2cc(Cl)c(Cl)cc2Cl)c1`, the logP worked out at 6.49.
`Clc1cc(Cl)c(Cl)c(-c2c(Cl)c(Cl)cc(Cl)c2Cl)c1Cl` had a logP of 7.15.
Regarding `Clc1ccc(-c2ccc(Cl)cc2)cc1`, the logP was 5.58.
Molecule `Clc1cc(-c2cc(Cl)c(Cl)c(Cl)c2)cc(Cl)c1Cl` displayed a logP of 7.55.
Next, `Clc1ccc(-c2c(Cl)cc(Cl)c(Cl)c2Cl)c(Cl)c1Cl`: 6.99; `Clc1c(Cl)c(Cl)c(-c2ccccc2)c(Cl)c1Cl`: 6.52.
Take `Clc1ccccc1-c1ccccc1Cl`: the logP was found to be 4.73.
As to `Clc1cc(Cl)c(-c2cc(Cl)c(Cl)cc2Cl)cc1Cl` [2,2',4,4',5,5'-HEXACHLOROBIPHENYL], the logP was 6.8.
